Data reported in patent US20240216412A1, “OXIDIZED NICOTINAMIDE ADENINE DINUCLEOTIDE (NAD+) PRECURSOR TREATMENT FOR HEART FAILURE ALLEVIATION INDEPENDENT OF MITOCHONDRIAL PROTEIN DEACETYLATION” (University of Washington, priority 2022, published 2024).

Columns and labels:
[1] = test system: NAD(H) levels in hearts and livers; assay: Heart and liver NAD+/NADH after oral or IP NR administration (Experimental Example 2); type: in vivo, mouse
Protocol: Mice 2-4 months old were used, weighing 25 to 27 g, with water intake ranging from 3.5 to 6.5 ml/day. To each mouse, either NR as an NAD precursor was administered daily or vehicle was administered daily, for up to 10 days, either by IP injection or orally by drinking water. Saline was used as vehicle for IP injection. For oral administration, vehicle was unmodified drinking water. NR was supplied substantially as in Experimental Example 1. For IP administration, NR was diluted in sterile, pharmaceutical-grade isotonic saline at concentrations based on weight-based dosing per subject to provide respective 500 mg/kg body weight daily doses as administrated by IP injection. Additionally, for oral administration, NR was dissolved in sterile filtered water at concentrations based on weight-based dosing per subject to provide respective 400 mg/kg body weight daily doses, provided for drinking adlibitum. […] Over the first several days of oral administration of NR solutions, the consumption of NR water was monitored daily to verify that mice are not finding the NR water unpalatable and becoming dehydrated. […] NAD^+ and NADH were determined in approximately 6 mg heart tissue and approximately 6 mg liver tissue using BioAssay Systems EnzyChrom NAD^+/NAD Assay Kit ([…]-100) per manufactures instructions.

[2] = test system: NAD+ salvage pathway / NAD(H) redox in mouse heart; assay: Cardiac NAD+/NADH determination and targeted LC-MS metabolomics in TAC hearts; type: in vivo
Protocol: NAD^+/NADH determination. NAD^+ and NADH were determined in 8 mg heart tissue using BioAssay Systems EnzyChrom NAD^+/NAD Assay Kit (E2ND-100) per manufactures instructions.
Targeted Metabolomics. Analysis of metabolites was done by The Northwest Metabolomics Research Center at the University of Washington. Briefly, aqueous metabolites for targeted LC-MS profiling of heart tissue samples were extracted from frozen heart tissue (10 mg) by precipitating in 80:20% methanol:water. After centrifugation, the supernatant was transferred to LC/MS auto sampler vials (Thermo Fisher). The protein pellet was redissolved in 0.1M NaOH and protein concentration measured for normalization. Samples were first homogenized in 200 μL purified deionized water at 4° C., and then 800 μL of cold methanol. Afterwards samples were vortexed, stored for 30 minutes at −20° C., sonicated in an ice bath for 10 minutes, centrifuged for 15 min at 14,000 rpm and 4° C., and then 600 μL of supernatant was collected from each sample. […] Samples were transferred into LC vials and placed into a temperature controlled autosampler for LC-MS analysis.
LC-MS Assay. Targeted LC-MS metabolite analysis was performed on a duplex-LC-MS system composed of two Shimadzu UPLC pumps, CTC Analytics PAL HTC-xt temperature-controlled auto-sampler (set at 4° C.) and AB Sciex 6500+ Triple Quadrupole MS equipped with ESI ionization source (2). UPLC pumps were connected to the autosampler in parallel and were able to perform two chromatography separations independently from each other. Each sample was injected twice on two identical analytical columns (Waters XBridge BEH Amide XP) performing separations in hydrophilic interaction liquid chromatography (HILIC) mode. While one column was performing separation and MS data acquisition in ESI+ ionization mode, the other column was getting equilibrated for sample injection, chromatography separation and MS data acquisition in ESI-mode. Each chromatography separation was 18 minutes (total analysis time per sample was 36 minutes). MS data acquisition was performed in multiple-reaction-monitoring (MRM) mode. LC-MS system was controlled using AB Sciex Analyst 1.6.3 software. Measured MS peaks were integrated using AB Sciex MultiQuant 3.0.3 software. The LC-MS assay was targeting 361 metabolites (plus 2 spiked reference internal standards). Up to 192 metabolites (plus 2 spiked standards) were measured across the study set, and over 95% of measured metabolites were measured across all the samples. In the addition to the study samples, two sets of quality control (QC) samples were used to monitor the assay performance as well as data reproducibility. One QC [QC(I)] was a pooled human serum sample used to monitor system performance and the other QC [QC(S)] was pooled study samples and this QC was used to monitor data reproducibility. Each QC sample was injected per every 10 study samples. The data were well reproducible with a median CV of 7.0%.

NC(=O)c1ccc[n+]([C@@H]2O[C@H](CO)[C@@H](O)[C@H]2O)c1 [NR, Nicotinamide riboside chloride]
Increase of NAD(H) in hearts and livers, IP injection over oral administration ([1]; IP 500 mg/kg daily 10 days vs oral 400 mg/kg daily 3 or 7 days): greater increases | Levels of NAD(H) in hearts and livers ([1]; oral 400 mg/kg daily 3 or 7 days, IP 500 mg/kg daily 10 days): increased | Markers of lipid oxidation (oxidized glutathione) ([2]; TAC mice): decreased | Cardiac levels of NAD(H) ([2]; WT and Sirt3Ko hearts): increased | Cardiac levels of methyl-nicotinamide (MeNAM) ([2]; WT and Sirt3Ko hearts): increased | Cardiac levels of nicotinamide (NAM) ([2]; WT and Sirt3Ko hearts): increased | NAD+/NADH ratio ([2]; both genotypes, after TAC): normalized | Metabolites indicative of myocardial fibrosis (hydroxyproline, putrescine, spermidine) ([2]; myocardial tissue of TAC hearts, vs vehicle): reduced
